The values that follow come from patent US20010056582A1, “PAIRED MUTATIONS” (priority 1997, published 2001).

Data set [1] has as its system post-cell stages of spermatogenesis (male germ cells). Particulars: cited from earlier work; for Lethal/tested mutations: number of lethal mutations among those tested, for chlorambucil includes mutations with evidence for deletion.
In the next data set the test system is male mice. In words: Sterility of male mice after ENU treatment. It is filed as in vivo. On the procedure: Mutations in the DNA of the premeiotic spermatogonia of male mice can be induced with the DNA alkylating agent ethylnitrosourea (ENU). Typically, 3 separate doses of 100 mg/kg body weight ENU are injected interperitoneally, with each injection separated by a one week interval. The animals undergo a period of sterility (usually 8-14 weeks), after which they can be mated to nonmutagenized females to produce offspring (the F1 generation) which carry heterozygous mutations in their genome (FIG. 1).
Each animal carries the same set of heterozygous mutations throughout both somatic and germ tissue. To generate large numbers of offspring for a paired sample set, 300 males are treated with ENU. Approximately 100 of these mice will be permanently sterile; the remaining 200 are permanently mated with 2 females each. […] In this way a set of paired samples comprised of over 30,000 animals can be produced within a year, including the time required to establish the ENU treated breeding males. The process can be scaled up by ENU treatment and breeding of additional male mice.

Another data set deals with zebrafish. Particulars: ENU mutagenesis; cited from earlier work.
The next data set relates to mice. To be noted: cited from earlier work; for mutation frequency compared with ENU: other chemical mutagens versus ENU (approximately 1 per 1000 mice).
[2] abbreviates: experimental minus historical control 43/801,406, for period of maximum response, at the listed exposure.
[3] abbreviates: rate relative to exposure in mol per kg body weight.

Counter-ions that a name gives are not always drawn. Like-named read-outs stand apart in the source and are kept apart here.

On to `C=CC(N)=O` [AA, acrylamide monomer], for which, in data set [1] (mouse, in vivo), the “Induced mutation rate per locus” value was 18.2 × 10^−5 and the “Induced mutation rate per locus per mol” value is recorded as 0.1 per mol.
`O=C(O)CCCc1ccc(N(CCCl)CCCl)cc1` [Chl, chlorambucil]: in data set [1] (setting [2]), the “Induced mutation rate per locus” value is given as 127.3 × 10^−5. Besides, the Lethal/tested mutations in data set [1] is 1/4. In addition, in data set [1] (setting [3]), the “Induced mutation rate per locus per mol” value is recorded as 38.7 per mol.
As for `O=P1(N(CCCl)CCCl)NCCCO1` (stereo not drawn) [Cp, cyclophosphamide], in data set [1] (setting [2]), the “Induced mutation rate per locus” value is listed as 24.3 × 10^−5. Further, in data set [1], the Lethal/tested mutations was 3/5. In addition, in data set [1] (setting [3]), the “Induced mutation rate per locus per mol” value was 0.5 per mol.
Turning to `CCN(N=O)C(N)=O` [ENU, N-ethyl-N-nitrosourea], in the data set on male mice (male mice, 3 doses of 100 mg/kg ENU interperitoneally at one week intervals), the period of sterility is reported as 8-14 weeks. For the same molecule, the mice permanently sterile entry with male mice (of 300 males treated with ENU) is “Approximately 100 mice”. In addition, in the data set on zebrafish, the locus-specific mutation frequency is recorded as 1/1000. The “frequency of mutations, determined for numerous genes” value in the data set with mice (for any given gene screened, phenotype-based) is recorded as 0.5-1.5 mutant mice per 1000 mice. Further, in the data set on mice (offspring of ENU mutagenized male mice, based on phenotypic assays), the “frequency of a mutation in any given gene” value was “approximately 1 per 1000 mice”. The “Induced mutation rate per locus” value in data set [1] (setting [2]) is 10.6 × 10^−5. In addition, in data set [1], the Lethal/tested mutations is reported as 0/5. Further, the “Induced mutation rate per locus per mol” value in data set [1] (setting [3]) is reported as 0.2 per mol.
For the molecule `CCOS(=O)(=O)OCC` [Et2SO4, diethyl sulfate], in data set [1] (mouse, in vivo), the “Induced mutation rate per locus” value was 11.2 × 10^−5 and the “Induced mutation rate per locus per mol” value is reported as 0.1 per mol. In addition, the Lethal/tested mutations in data set [1] is 4/4.
`CCOS(C)(=O)=O` [EtMs, ethyl methanesulforate]: in data set [1] (setting [2]), the “Induced mutation rate per locus” value is 20.9 × 10^−5. Moreover, in data set [1], the Lethal/tested mutations is 0/1. The “Induced mutation rate per locus per mol” value in data set [1] (setting [3]) is recorded as 0.1 per mol.
Turning to `CN(N=O)C(N)=O` [MNU, N-methyl N-nitrosourea], the “mutation frequency compared with ENU” value in the data set with mice is recorded as “same type of mutation frequency”. The “Induced mutation rate per locus” value in data set [1] (setting [2]) is given as 90.2 × 10^−5. Moreover, in data set [1], the Lethal/tested mutations is 0/17. Also, the “Induced mutation rate per locus per mol” value in data set [1] (setting [3]) is recorded as 1.2 per mol.
In the case of `COS(C)(=O)=O` [MeMs, methyl methanesulforate], in the data set on mice, the “mutation frequency compared with ENU” value is “same type of mutation frequency”. Also, the “Induced mutation rate per locus” value in data set [1] (setting [2]) is recorded as 24.0 × 10^−5. The Lethal/tested mutations in data set [1] is 10/14. Besides, the “Induced mutation rate per locus per mol” value in data set [1] (setting [3]) was 0.7 per mol.
For `CNNCc1ccc(C(=O)NC(C)C)cc1.Cl` [Pre, phocarbazine hydrochloride], the “mutation frequency compared with ENU” value in the data set with mice is recorded as “same type of mutation frequency”. In addition, the “Induced mutation rate per locus” value in data set [1] (setting [2]) is 21.6 × 10^−5. In addition, the “Induced mutation rate per locus per mol” value in data set [1] (setting [3]) is 0.1 per mol.
